Reference: US4350705A, “Cyclohexane derivatives, process for preparation thereof and medicines containing these cyclohexane derivatives” (Eisai Co., Ltd., priority 1979, dated 1982)
Where two headings read alike, the source gives them in different places.

Experiments:
[1] = test system: spontaneous hypertensive rats (SHR); assay: Hypotensive Action: systolic pressure from tail artery of SHR after oral administration 10 mg/Kg once a day for 2 days; type: in vivo, rat; conditions: oral 10 mg/Kg, * = significant vs control, P = 0.01
[2] = test system: spontaneous hypertensive rats (SHR); assay: as above; type: in vivo, rat; conditions: oral 10 mg/Kg, * = significant vs control, P = 0.01; remark: listed apart in the source
Procedure: A test compound suspended in a gum arabic solution was orally administered once a day, at a dose of 10 mg/Kg (body weight), for 2 days, to groups of spontaneous hypertensive rats (hereinafter referred to as "SHR") (about 30 weeks old; systolic pressure=about 230 mm Hg), each group consisting of 6 rats.
The systolic pressure was measured from the tail artery of SHR under no anesthesia before the administration and 6 hours after the time of administration by using a continuous tonometer (Shimazu Tonometer Model SCS-301 manufactured by Shimazu Seisakusho K.K.). An aqueous solution of gum arabic alone was administered to the rats of the control group.

rats of the SD series = assay: Acute Toxicity: LD50 in rats of the SD series, 14 days observation; type: in vivo; conditions: female
Text: (§1) Groups of rats of the SD series (body weight=160-280 g; about 8 weeks old), each group consisting of 5 rats, were used. After administration of the test compound, the death or survival was examined during a period of 14 days to determine the LD50 value.

[3] = as above; type: in vivo; conditions: rat, in vivo, male
Text: as §1

[4] = ip, abdominal administration, read-out: LD50, Abdominal Administration, male
[5] = oral, read-out: LD50, Oral Administration, male

| SMILES | Blood Pressure (mm Hg) on Second Day, after 24 hours [1] | Blood Pressure (mm Hg) on First Day, after 6 hours [2] | Blood Pressure (mm Hg) on Second Day, after 6 hours [2] | Blood Pressure (mm Hg) on Second Day, before administration [2] | LD50, Abdominal Administration, female (rats of the SD series) | LD50, Oral Administration, female (rats of the SD series) | LD50 at 336 h [3, 4] | LD50 at 336 h [3, 5] |
| --- | --- | --- | --- | --- | --- | --- | --- | --- |
| CC(=O)Oc1ccc(CCC(=O)C2C(=O)CC(c3ccccc3)CC2=O)cc1OC(C)=O (stereo not drawn) | 212 ± 5 mm Hg | 195 ± 10 mm Hg | 195 ± 10 mm Hg | 222± 5 mm Hg |  |  |  |  |
| O=C(CCc1ccc(O)c(O)c1)C1C(=O)CC(c2ccccc2)CC1=O (stereo not drawn) | 205 ± 5 mm Hg | 204 ± 5 mm Hg | 200 ± 5 mm Hg | 209 ± 5 mm Hg |  |  |  |  |
| Cc1ccc(C2CC(=O)C(C(=O)CCc3ccc4c(c3)OCO4)C(=O)C2)cc1 (stereo not drawn) [drawing 21] | 192 ± 5 mm Hg | 198 ± 5 mm Hg | 188 ± 5 mm Hg | 200 ± 10 mm Hg |  |  |  |  |
| O=C(Cc1ccccc1)C1C(=O)CC(c2ccccc2)CC1=O (stereo not drawn) [drawing 35] |  |  |  |  | > 500 | > 4000 | > 500 mg/kg | > 4000 mg/kg |
| COc1ccc(C2CC(=O)C(C(=O)CCc3ccc(O)c(O)c3)C(=O)C2)cc1 (stereo not drawn) | 228 ± 2 mm Hg | 212 ± 3 mm Hg | 220 ± 1 mm Hg | 225 ± 1 mm Hg |  |  |  |  |
| O=C(CCc1ccc2c(c1)OCO2)C1C(=O)CC(c2ccccc2)CC1=O (stereo not drawn) [drawing 33] |  |  |  |  | > 500 | > 4000 | > 500 mg/kg | > 4000 mg/kg |
| CC1(C)Oc2ccc(CCC(=O)C3C(=O)CC(c4ccccc4)CC3=O)cc2O1 (stereo not drawn) | 192 ± 7 mm Hg | 207 ± 3 mm Hg | 190 ± 5 mm Hg | 202 ± 7 mm Hg |  |  |  |  |
| COc1ccc(CCC(=O)C2C(=O)CC(c3ccccc3)CC2=O)cc1 (stereo not drawn) | 212 ± 6 mm Hg | 209 ± 5 mm Hg | 210 ± 5 mm Hg | 213 ± 6 mm Hg |  |  |  |  |
| O=C(Cc1ccccc1)C1C(=O)CC(c2ccccc2)CC1=O (stereo not drawn) [drawing 31] | 193 ± 7 mm Hg | 183 ± 3 mm Hg | 183 ± 3 mm Hg | 203 ± 3 mm Hg |  |  |  |  |
| O=C(Cc1ccc(Cl)cc1)C1C(=O)CC(c2ccccc2)CC1=O (stereo not drawn) | 222 ± 4 mm Hg | 215 ± 1 mm Hg | 215 ± 2 mm Hg | 217 ± 4 mm Hg |  |  |  |  |
| COc1ccccc1C1CC(=O)C(C(=O)CCc2ccc3c(c2)OCO3)C(=O)C1 (stereo not drawn) | 220 ± 6 mm Hg | 210 ± 5 mm Hg | 205 ± 5 mm Hg | 220 ± 6 mm Hg |  |  |  |  |
| O=C(CCc1ccc2c(c1)OCO2)C1C(=O)CC(c2ccccc2)CC1=O (stereo not drawn) [drawing 20] | 207 ± 7 mm Hg | 205 ± 7 mm Hg | 204 ± 6 mm Hg | 218 ± 7 mm Hg |  |  |  |  |
| O=C(CCc1ccc2c(c1)OC(c1ccccc1)(c1ccccc1)O2)C1C(=O)CC(c2ccccc2)CC1=O (stereo not drawn) | 208 ± 5 mm Hg | 202 ± 5 mm Hg | 192 ± 5 mm Hg | 210 ± 10 mm Hg |  |  |  |  |
| O=C(CCc1ccccc1Cl)C1C(=O)CC(c2ccccc2)CC1=O (stereo not drawn) | 193 ± 1 mm Hg | 200 ± 3 mm Hg | 213 ± 4 mm Hg | 208 ± 9 mm Hg |  |  |  |  |
| Cc1ccc(C2CC(=O)C(C(=O)CCc3ccc4c(c3)OCO4)C(=O)C2)cc1 (stereo not drawn) [drawing 34] |  |  |  |  | > 500 | > 4000 | > 500 mg/kg | > 4000 mg/kg |
